The text below walks through data of US11014956B2, “Compositions and methods for altering second messenger signaling” (Memorial Sloan Kettering Cancer Center, priority 2013, dated 2021).

In data set [1] the target is T1, cGAS (Mus musculus, UniProt Q8C6L5).
T1 construct: Purified recombinant full length (fl, amino acids 1-507) and truncated (tr, amino acids 147-507) murine cGAS; His6-SUMO (N, cleaved yes); made in house; host or cells: E. coli BL21 (DE3) RIL
The data set can be described thus: cGAS activity assay, c[G(2′,5′)pA(3′,5′)p] formation by thin-layer chromatography. The data set is classed as biochemical. Conditions: for cyclic dinucleotide formation with the nucleotide as cGAS substrate in place of GTP or ATP (in words): cGAS plus dsDNA. The text has this:
(§1) To validate the structural results, we established an activity assay using thin-layer chromatography (FIG. 11) and monitored cyclic dinucleotide c[G(2′,5′)pA(3′,5′)p] formation from ATP and GTP using purified recombinant full-length and truncated cGAS proteins. cGAS required the presence of dsDNA and Mg^2+ or Mn^2+ for activity (FIG. 5A-B). […] The trace amount of c[G(2′,5′)pA(3′,5′)p]detected for the specific ssDNA used in this experiment was attributable to a stretch of sequence complementarity, and the substitution of G by 8-oxoguanine (8-oxoG) was sufficient to destabilize its predicted interaction and eliminate the residual cGAS activity.
(§2) Purified recombinant full length (fl, amino acids 1-507) and truncated (tr, amino acids 147-507) murine cGAS, including truncated mutant versions 1-6, were incubated in 20 μL reactions containing: 1 μM cGAS, 3.3 μM dsDNA, 5 mM MgCl2, 150 mM NaCl, 20 mM Tris-HCl, pH 7.5 at 25° C., 1 mM DTT, 10% glycerol, 1 mM each of nucleotides (typically ATP and GTP), and α^32P or γ^32P radiolabelled NTPs or dNTPs at 37° C. for 40 min. Reactions were stopped by addition of 20 μL of 50 mM EDTA. 2 μL of reaction solution was spotted onto high-performance TLC plates (HPTLC silica gel, 60 Å pores, F254, 10×10 cm, cat #1.05628.0001, EMD Millipore) and products were separated with Solvent 1 (NH4HCO3:C2H5OH:H2O [0.2 M:30%:70%], w:v:v) or 2 (NH4HCO3:C2H5OH:H2O [0.025 M:30%:70%], w:v:v) at 25° C. for 1 h. Reaction products were visualized by UV (254 nm) and phosphorimaging (Typhoon FLA 9500, GE Healthcare). Images were processed using Adobe Photoshop and Illustrator CS5. The TLC conditions used were largely based on a protocol established to separate 3′,5′ cAMP (Higashida et al, 2012).
(§3) The yield of c[G(2′,5′)pA(3′,5′)p] generated was calculated by densitometry analysis of TLC experiments, using FIJI (ImageJ 1.47i) or spectrophotemetrically (absorbance at 260 nm, E260=25.4×10^3) after purification from HPLC. For densitometry analyses, the fraction of α^32P-labelled c[G(2′,5′)pA(3′,5′)p] over total radioactivity per lane (c[G(2′,5′)pA(3′,5′)p]plus remaining α^32P-labelled ATP or GTP) was calculated.

Data set [2] deals with IFN-β luciferase reporter. The data set is described as follows: IFN-β luciferase reporter assay in HEK 293 cells co-expressing cGAS and STING. The data set is classed as cell-based. Conditions: for cGAS function in cells (in words): alanine mutants of full-length cGAS expressed in HEK 293 cells. The text has this: To assess the impact on cGAS function in cells, we generated additional alanine mutants of cGAS for expression in mammalian cells. The full-length cGAS mutants together with STING and an IFN-β luciferase reporter were transiently expressed in HEK 293 cells. […] (Arg364, Tyr 421; FIG. 2F, 4B), while single mutants of these residues only slightly impaired cGAS function (FIG. 7C). […] Similarly, conversion of the highly mobile Gly198 to sterically restricted proline abrogated cGAS activity (FIG. 13E).
3×10^4 HEK293 cells per 96-well were reverse-transfected in triplicates with a mixture of pGL3-IFNbeta-Gluc (50 ng), pLenti-EF1-Fluc (25 ng), pLenti-EF1-mSTING (25 ng) and cGAS-expression plasmid (25 ng, pMAX-cGAS WT or mutants) or Control plasmid pMAX-GFP (Amaxa) using Trans-IT LT1 (MirusBio, Madison, Wis.). After 36 h cells were lysed in passive lysis buffer. Firefly and gaussia Luciferase activities were determined on an EnVision reader (Perkin Elmer, Waltham, Mass.) using the respective substrates D-luciferin and coelenterazine (PJK GmbH, Kleinblittersdorf, Germany). IFNbeta-Gluc values were normalized to constitutive firefly luciferase values and fold induction was calculated in relation to control-plasmid pMAX-GFP.
A general note: In a reporter assay the amount or activity of a reporter protein is the signal.

The test system of data set [3] is cGAS. The data set can be described thus: cGAS activity assay, c[G(2′,5′)pA(3′,5′)p] formation by thin-layer chromatography. The data set is classed as biochemical, mouse. The settings on record: for c[G(2′,5′)pA(3′,5′)p] formation by cGAS protein in vitro (in words): purified recombinant cGAS incubated with DNA.
From the text: as §1, §2, §3

Entries after “also recorded” stand apart in the source; their conditions may differ.

T1 sequence (Q8C6L5 whole entry, the tested form may be a part): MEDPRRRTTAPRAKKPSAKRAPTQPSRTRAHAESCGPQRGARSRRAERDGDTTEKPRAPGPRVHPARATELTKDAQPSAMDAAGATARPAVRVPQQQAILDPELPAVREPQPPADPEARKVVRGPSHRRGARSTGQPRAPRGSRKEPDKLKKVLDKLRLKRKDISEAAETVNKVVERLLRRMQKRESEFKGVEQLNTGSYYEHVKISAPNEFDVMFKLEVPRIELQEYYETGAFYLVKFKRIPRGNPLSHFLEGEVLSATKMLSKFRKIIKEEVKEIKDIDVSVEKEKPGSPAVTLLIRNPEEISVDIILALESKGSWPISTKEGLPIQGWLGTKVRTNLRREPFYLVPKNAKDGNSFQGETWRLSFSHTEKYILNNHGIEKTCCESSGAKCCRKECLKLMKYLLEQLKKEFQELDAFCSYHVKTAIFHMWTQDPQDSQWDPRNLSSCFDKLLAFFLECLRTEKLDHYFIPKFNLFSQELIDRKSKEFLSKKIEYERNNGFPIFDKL

Regarding “16 bp dsDNA: 16 bp dsDNA used for crystallography (SEQ ID NO: 47 and 48) (chain 1 AAATTGCCGAAGACGAA; chain 2 TTTCGTCTTCGGCAATT; DNA, backbone not given here) [reference compound]”, in data set [1] (ATP and GTP as substrates), the “stimulation of cGAS cyclic dinucleotide formation by the nucleic acid (in words)” value is “elicited some activity”.
With `Nc1ncnc2c1ncn2[C@H]1C[C@H](O)[C@@H](COP(=O)(O)OP(=O)(O)OP(=O)(O)O)O1` [2′-dATP, reference compound], in data set [1], the “cyclic dinucleotide formation with the nucleotide as cGAS substrate in place of GTP or ATP (in words)” value is listed as “forms; also recorded: markedly reduced formation of cyclic GA-dinucleotides”.
Turning to `Nc1nc2c(ncn2[C@H]2C[C@H](O)[C@@H](COP(=O)(O)OP(=O)(O)OP(=O)(O)O)O2)c(=O)[nH]1` [2′-dGTP, reference compound], the “cyclic dinucleotide formation with the nucleotide as cGAS substrate in place of GTP or ATP (in words)” value in data set [1] is listed as “not at all; also recorded: unable to form a cyclic dinucleotide”.
`Nc1ncnc2c1ncn2[C@@H]1O[C@H](COP(=O)(O)OP(=O)(O)OP(=O)(O)O)C[C@H]1O` [3′-dATP, reference compound]: the “cyclic dinucleotide formation with the nucleotide as cGAS substrate in place of GTP or ATP (in words)” value in data set [1] is recorded as “markedly reduced formation of cyclic GA-dinucleotides”.
As to “Arg161: cGAS single alanine mutant of DNA binding residue Arg161”, in data set [2], the “cGAS function in cells (in words)” value is reported as “not sufficient to impair cGAS activity”.
“Asp213: cGAS single mutant, catalytic residue Asp213 replaced by Ala”: the “cGAS function in cells (in words)” value in data set [2] is “non-functional; also recorded: functionally dead”.
“Asp307: cGAS single mutant, catalytic residue Asp307 replaced by Ala”: in data set [2], the “cGAS function in cells (in words)” value is reported as “non-functional; also recorded: functionally dead”.
For the molecule G198A: cGAS single mutant G198A, the “cGAS function in cells (in words)” value in data set [2] was “did not severely impair cGAS function”.
Turning to “Glu211: cGAS single mutant, catalytic residue Glu211 replaced by Ala”, the “c[G(2′,5′)pA(3′,5′)p] formation by cGAS protein in vitro (in words)” value (“c[G(2′,5′)pA(3′,5′)p] formation” below) in data set [3] is “functionally dead”. Further, the “cGAS function in cells (in words)” value in data set [2] was “non-functional; also recorded: functionally dead”.
In the case of S199A: cGAS single mutant S199A, the “c[G(2′,5′)pA(3′,5′)p] formation” value in data set [3] was “retained substantial activity”. Moreover, in data set [2], the “cGAS function in cells (in words)” value was “did not severely impair cGAS function”.
In the case of “Y421A, R364A: cGAS dual mutant of the base stacking residues Arg364 and Tyr421”, the “cGAS function in cells (in words)” value in data set [2] was “loss in the majority of activity”; in data set [2] (Tyr 421), “abrogation of cGAS activity”.
Regarding “cGAS (tr): truncated murine cGAS, amino acids 147-507”, the “c[G(2′,5′)pA(3′,5′)p] formation” value in data set [3] is recorded as “exhibits activity, albeit less than cGAS (fl)”.
For “cGAS: mouse cyclic GMP-AMP synthase, wild type, full length (amino acids 1-507), recombinant or expressed in cells”, the “estimated observed rate constant” value in data set [3] (multiple turnover conditions) is 0.19 min⁻¹. In data set [3] (multiple turnover conditions, 40 min), the “turnovers per enzyme molecule” value is on record as “over 750”. Also, the “original ATP and GTP converted to c[G(2′,5′)pA(3′,5′)p]” value in data set [3] (multiple turnover conditions, within 40 min, n=5) is on record as “Over 78%”. In addition, the “enhanced luciferase activity compared to a control plasmid” value in data set [2] (HEK 293 cells, STING and IFN-β luciferase reporter transiently expressed) is on record as approximately 15 fold.

B1: S165A, N172A, K372A triple mutant: cGAS dsDNA-binding triple mutant (protein)
chain: PDKLKKVLDKLRLKRKDIAEAAETVAKVVERLLRRMQKRESEFKGVEQLNTGSYYEHVKISAPNEFDVMFKLEVPRIELQEYYETGAFYLVKFKRIPRGNPLSHFLEGEVLSATKMLSKFRKIIKEEVKEIKDIDVSVEKEKPGSPAVTLLIRNPEEISVDIILALESKGSWPISTKEGLPIQGWLGTKVRTNLRREPFYLVPKNAKDGNSFQGETWRLSFSHTEAYILNNHGIEKTCCESSGAKCCRKECLKLMKYLLEQLKKEFQELDAFCSYHVKTAIFHMWTQDPQDSQWDPRNLSSCFDKLLAFFLECLRTEKLDHYFIPKFNLFSQELIDRKSKEFLSKKIEYERNNGFPIFDKL
Regarding B1, the “c[G(2′,5′)pA(3′,5′)p] formation” value in data set [3] is “complete loss in activity”. Further, the “cGAS function in cells (in words)” value in data set [2] is “complete loss in activity and ability to stimulate interferon production”.

B2: S165A, N172A, Y200A triple mutant: cGAS dsDNA-binding triple mutant (protein)
chain: PDKLKKVLDKLRLKRKDIAEAAETVAKVVERLLRRMQKRESEFKGVEQLNTGSAYEHVKISAPNEFDVMFKLEVPRIELQEYYETGAFYLVKFKRIPRGNPLSHFLEGEVLSATKMLSKFRKIIKEEVKEIKDIDVSVEKEKPGSPAVTLLIRNPEEISVDIILALESKGSWPISTKEGLPIQGWLGTKVRTNLRREPFYLVPKNAKDGNSFQGETWRLSFSHTEKYILNNHGIEKTCCESSGAKCCRKECLKLMKYLLEQLKKEFQELDAFCSYHVKTAIFHMWTQDPQDSQWDPRNLSSCFDKLLAFFLECLRTEKLDHYFIPKFNLFSQELIDRKSKEFLSKKIEYERNNGFPIFDKL
With B2, the “c[G(2′,5′)pA(3′,5′)p] formation” value in data set [3] is listed as “partial loss in activity”. Also, the “cGAS function in cells (in words)” value in data set [2] is recorded as “partial loss in activity”.

B3: N196A, Y200A, K372A triple mutant: cGAS dsDNA-binding triple mutant (protein)
chain: PDKLKKVLDKLRLKRKDISEAAETVNKVVERLLRRMQKRESEFKGVEQLATGSAYEHVKISAPNEFDVMFKLEVPRIELQEYYETGAFYLVKFKRIPRGNPLSHFLEGEVLSATKMLSKFRKIIKEEVKEIKDIDVSVEKEKPGSPAVTLLIRNPEEISVDIILALESKGSWPISTKEGLPIQGWLGTKVRTNLRREPFYLVPKNAKDGNSFQGETWRLSFSHTEAYILNNHGIEKTCCESSGAKCCRKECLKLMKYLLEQLKKEFQELDAFCSYHVKTAIFHMWTQDPQDSQWDPRNLSSCFDKLLAFFLECLRTEKLDHYFIPKFNLFSQELIDRKSKEFLSKKIEYERNNGFPIFDKL
On to B3, for which the “c[G(2′,5′)pA(3′,5′)p] formation” value in data set [3] was “complete loss in activity”. In addition, the “cGAS function in cells (in words)” value in data set [2] is “complete loss in activity and ability to stimulate interferon production”.

B4: R158A, R161A, K395A triple mutant: cGAS dsDNA-binding triple mutant (protein)
chain: PDKLKKVLDKLALKAKDISEAAETVNKVVERLLRRMQKRESEFKGVEQLNTGSYYEHVKISAPNEFDVMFKLEVPRIELQEYYETGAFYLVKFKRIPRGNPLSHFLEGEVLSATKMLSKFRKIIKEEVKEIKDIDVSVEKEKPGSPAVTLLIRNPEEISVDIILALESKGSWPISTKEGLPIQGWLGTKVRTNLRREPFYLVPKNAKDGNSFQGETWRLSFSHTEKYILNNHGIEKTCCESSGAKCCRAECLKLMKYLLEQLKKEFQELDAFCSYHVKTAIFHMWTQDPQDSQWDPRNLSSCFDKLLAFFLECLRTEKLDHYFIPKFNLFSQELIDRKSKEFLSKKIEYERNNGFPIFDKL
In the case of B4, the “c[G(2′,5′)pA(3′,5′)p] formation” value in data set [3] is listed as “complete loss in activity”. Also, the “cGAS function in cells (in words)” value in data set [2] is “complete loss in activity and ability to stimulate interferon production”.
